Laboratory results published in ChEMBL document CHEMBL3046288, “Effect of isoxaflutole on the growth, nodulation and nitrogen fixation of chickpea (Cicer arietinum L.)” (Crop Prot, 2009).

What was measured:
Format in all cases: organism-based
Cicer arietinum [1] = experiment: Toxicity in drug-tolerant Cicer arietinum (chickpea) assessed as effect on shoot dry weight per pot at 75 g/ha after 42 days in presence of 1.5 mM of nitrate (reference value: 0.50 gram); conditions: in vivo, 1008 h
Cicer arietinum [2] = experiment: Toxicity in drug-sensitive Cicer arietinum (chickpea) assessed as effect on amount of fixed nitrogen level per gram of plant dry weight at 75 g/ha after 42 days (reference value: 5.5 mg); conditions: in vivo, 1008 h
Cicer arietinum [3] = experiment: Toxicity in drug-sensitive Cicer arietinum (chickpea) assessed as effect on plant height at 75 g/ha after 42 days (reference value: 21.8 cm); conditions: in vivo, 1008 h
Cicer arietinum [4] = experiment: Toxicity in drug-sensitive Cicer arietinum (chickpea) assessed as effect on total nitrogen level per gram of plant dry weight at 75 g/ha after 42 days (reference value: 34.5 mg); conditions: in vivo, 1008 h
Cicer arietinum [5] = experiment: Toxicity in drug-tolerant Cicer arietinum (chickpea) assessed as effect on amount of fixed nitrogen level per gram of plant dry weight at 75 g/ha after 42 days (reference value: 5.5 mg); conditions: in vivo, 1008 h
Cicer arietinum [6] = experiment: Toxicity in drug-sensitive Cicer arietinum (chickpea) assessed as effect on root nitrogen level per gram of root dry weight at 75 g/ha after 42 days (reference value: 13.4 mg); conditions: in vivo, 1008 h
Cicer arietinum [7] = experiment: Toxicity in drug-tolerant Cicer arietinum (chickpea) assessed as effect on total nitrogen level per gram of plant dry weight at 75 g/ha after 42 days (reference value: 31.1 mg); conditions: in vivo, 1008 h
Cicer arietinum [8] = experiment: Toxicity in drug-sensitive Cicer arietinum (chickpea) assessed as effect on nodule dry weight per gram of root dry weight at 75 g/ha after 42 days (reference value: 258 mg); conditions: in vivo, 1008 h
Cicer arietinum [9] = experiment: Toxicity in drug-tolerant Cicer arietinum (chickpea) assessed as effect on root dry weight per pot at 75 g/ha after 42 days (reference value: 0.30 gram); conditions: in vivo, 1008 h
Cicer arietinum [10] = experiment: Toxicity in drug-sensitive Cicer arietinum (chickpea) assessed as effect on average nodule weight at 75 g/ha after 42 days (reference value: 1.31 mg); conditions: in vivo, 1008 h
Cicer arietinum [11] = experiment: Toxicity in drug-tolerant Cicer arietinum (chickpea) assessed as effect on plant height at 75 g/ha after 42 days (reference value: 21.4 cm); conditions: in vivo, 1008 h
Cicer arietinum [12] = experiment: Toxicity in drug-sensitive Cicer arietinum (chickpea) assessed as effect on amount of fixed nitrogen level per gram of plant dry weight at 75 g/ha after 42 days in presence of 1.5 mM of nitrate (reference value: 6 mg); conditions: in vivo, 1008 h
Cicer arietinum [13] = experiment: Toxicity in drug-tolerant Cicer arietinum (chickpea) assessed as effect on nodule dry weight per gram of root dry weight at 75 g/ha after 42 days (reference value: 209.7 mg); conditions: in vivo, other, 1008 h
Cicer arietinum [14] = experiment: Toxicity in drug-tolerant Cicer arietinum (chickpea) assessed as effect on shoot dry weight per pot at 75 g/ha after 42 days (reference value: 0.53 gram); conditions: in vivo, 1008 h
Cicer arietinum [15] = experiment: Toxicity in drug-sensitive Cicer arietinum (chickpea) assessed as effect on shoot dry weight per pot at 75 g/ha after 42 days (reference value: 0.50 gram); conditions: in vivo, 1008 h
Cicer arietinum [16] = experiment: Toxicity in drug-sensitive Cicer arietinum (chickpea) assessed as effect on root dry weight per pot at 75 g/ha after 42 days (reference value: 0.26 gram); conditions: in vivo, 1008 h
Cicer arietinum [17] = experiment: Toxicity in drug-tolerant Cicer arietinum (chickpea) assessed as effect on root nitrogen level per gram of root dry weight at 75 g/ha after 42 days (reference value: 12.1 mg); conditions: in vivo, other, 1008 h
Cicer arietinum [18] = experiment: Toxicity in drug-tolerant Cicer arietinum (chickpea) assessed as effect on amount of fixed nitrogen level per gram of plant dry weight at 75 g/ha after 42 days in presence of 1.5 mM of nitrate (reference value: 5.9 mg); conditions: in vivo, 1008 h
Cicer arietinum [19] = experiment: Toxicity in drug-sensitive Cicer arietinum (chickpea) assessed as effect on shoot dry weight per pot at 75 g/ha after 42 days in presence of 1.5 mM of nitrate (reference value: 0.38 gram); conditions: in vivo, 1008 h
Cicer arietinum [20] = experiment: Toxicity in drug-tolerant Cicer arietinum (chickpea) assessed as effect on average nodule weight at 75 g/ha after 42 days (reference value: 1.21 mg); conditions: in vivo, 1008 h

## CS(=O)(=O)c1cc(C(F)(F)F)ccc1C(=O)c1cnoc1C1CC1 [ISOXAFLUTOLE]
Cicer arietinum [1]
  Activity: 0.54 g
Cicer arietinum [2]
  Activity: 3.5 mg
Cicer arietinum [3]
  Activity: 15.5 cm
Cicer arietinum [4]
  Activity: 27.4 mg
Cicer arietinum [5]
  Activity: 3.7 mg
Cicer arietinum [6]
  Activity: 8.1 mg
Cicer arietinum [7]
  Activity: 30.1 mg
Cicer arietinum [8]
  Activity: 123.7 mg
Cicer arietinum [9]
  Activity: 0.27 g
Cicer arietinum [10]
  Activity: 0.76 mg
Cicer arietinum [11]
  Activity: 20.6 cm
Cicer arietinum [12]
  Activity: 4.6 mg
Cicer arietinum [13]
  Activity: 174.9 mg
Cicer arietinum [14]
  Activity: 0.51 g
Cicer arietinum [15]
  Activity: 0.39 g
Cicer arietinum [16]
  Activity: 0.13 g
Cicer arietinum [17]
  Activity: 11.1 mg
Cicer arietinum [18]
  Activity: 3.1 mg
Cicer arietinum [19]
  Activity: 0.51 g
Cicer arietinum [20]
  Activity: 1.16 mg
